Experimental data as given in publication PMC5218480 (PLoS ONE, 2017).

System: MV-4-11 cells
Assay: Gene expression microarray analysis (Affymetrix PrimeView) and GSEA
Format: cell-based, human
Design: RFU PODN (11730768_x_at) / Fold change /veh PODN (11730768_x_at) / RFU LINC00158 (11744669_a_at) / Fold change /veh LINC00158 (11744669_a_at) / RFU DUSP10 (11751237_a_at) / Fold change /veh DUSP10 (11751237_a_at) / RFU ID3 (11757404_x_at) / Fold change /veh ID3 (11757404_x_at) / RFU PLEKHG5 (11737974_s_at) / Fold change /veh PLEKHG5 (11737974_s_at) / RFU LRRC4B (11730491_at) / Fold change /veh LRRC4B (11730491_at) / RFU GIMAP4 (11747438_a_at) / Fold change /veh GIMAP4 (11747438_a_at) / RFU KRT8 (11758183_x_at) / Fold change /veh KRT8 (11758183_x_at) / RFU CNN1 (11734310_a_at) / Fold change /veh CNN1 (11734310_a_at) / RFU VPS37D (11726825_at) / Fold change /veh VPS37D (11726825_at) / RFU C10orf10 (11716522_x_at) / Fold change /veh C10orf10 (11716522_x_at) / RFU KIR2DL2 /// KIR2DL4 /// KIR2DL5A /// KIR2DL5B /// KIR2DS1 /// KIR2DS2 /// KIR2DS3 /// KIR2DS4 /// KIR3DL3 /// KIR3DL3 /// KIR3DS1 (11738374_at) / Fold change /veh KIR2DL2 /// KIR2DL4 /// KIR2DL5A /// KIR2DL5B /// KIR2DS1 /// KIR2DS2 /// KIR2DS3 /// KIR2DS4 /// KIR3DL3 /// KIR3DL3 /// KIR3DS1 (11738374_at) / RFU C1QL1 (11718748_at) / Fold change /veh C1QL1 (11718748_at) / RFU TMPRSS4 (11747572_a_at) / Fold change /veh TMPRSS4 (11747572_a_at) / RFU HAMP (11756126_x_at) / Fold change /veh HAMP (11756126_x_at) / RFU RNFT2 (11725882_a_at) / Fold change /veh RNFT2 (11725882_a_at) / RFU NR4A2 (11747474_a_at) / Fold change /veh NR4A2 (11747474_a_at) / RFU ABCC12 (11746883_a_at) / Fold change /veh ABCC12 (11746883_a_at) / RFU TMEM136 (11760407_x_at) / Fold change /veh TMEM136 (11760407_x_at) / RFU CLDN22 /// WWC2 (11732394_at) / Fold change /veh CLDN22 /// WWC2 (11732394_at) / RFU HLA-DPB1 (11760878_x_at) / Fold change /veh HLA-DPB1 (11760878_x_at) / RFU SPINT1 (11716480_a_at) / Fold change /veh SPINT1 (11716480_a_at) / RFU GAP43 (11754022_s_at) / Fold change /veh GAP43 (11754022_s_at) / RFU A4GNT (11735810_at) / Fold change /veh A4GNT (11735810_at) / RFU PRB3 (11715151_x_at) / Fold change /veh PRB3 (11715151_x_at) / RFU TUBB4B (11761932_at) / Fold change /veh TUBB4B (11761932_at) / RFU CAPN14 (11732068_a_at) / Fold change /veh CAPN14 (11732068_a_at) / RFU TMCC2 (11721928_a_at) / Fold change /veh TMCC2 (11721928_a_at) / RFU IRGQ (11745062_a_at) / Fold change /veh IRGQ (11745062_a_at) / RFU FAM174B (11720279_a_at) / Fold change /veh FAM174B (11720279_a_at) / RFU TMPRSS4 (11748680_a_at) / Fold change /veh TMPRSS4 (11748680_a_at) / RFU FAM212B (11763350_a_at) / Fold change /veh FAM212B (11763350_a_at) / RFU PLEKHG5 (11743358_a_at) / Fold change /veh PLEKHG5 (11743358_a_at) / RFU ZSCAN30 (11745921_a_at) / Fold change /veh ZSCAN30 (11745921_a_at) / RFU CMKLR1 (11741424_a_at) / Fold change /veh CMKLR1 (11741424_a_at) / RFU LOC101060620 /// MAPK8IP1 (11723275_at) / Fold change /veh LOC101060620 /// MAPK8IP1 (11723275_at) / RFU SPTSSB (11747773_x_at) / Fold change /veh SPTSSB (11747773_x_at) / RFU PRSS12 (11739890_at) / Fold change /veh PRSS12 (11739890_at) / RFU BIN1 (11741810_x_at) / Fold change /veh BIN1 (11741810_x_at) / RFU WNT11 (11732464_a_at) / Fold change /veh WNT11 (11732464_a_at) / RFU C10orf10 (11716521_a_at) / Fold change /veh C10orf10 (11716521_a_at) / RFU C5orf56 (11738089_at) / Fold change /veh C5orf56 (11738089_at) / RFU CYB561 (11721691_x_at) / Fold change /veh CYB561 (11721691_x_at) / RFU ANKRD19P (11752326_a_at) / Fold change /veh ANKRD19P (11752326_a_at) / RFU OR2T12 /// OR2T33 /// OR2T8 (11738714_s_at) / Fold change /veh OR2T12 /// OR2T33 /// OR2T8 (11738714_s_at) / RFU VCAN (11748164_a_at) / Fold change /veh VCAN (11748164_a_at) / RFU JSRP1 (11732532_at) / Fold change /veh JSRP1 (11732532_at) / RFU KRTAP10-11 (11738290_x_at) / Fold change /veh KRTAP10-11 (11738290_x_at) / RFU MYO3A (11730013_a_at) / Fold change /veh MYO3A (11730013_a_at) / RFU EBF3 (11725865_a_at) / Fold change /veh EBF3 (11725865_a_at) / RFU CAMK2N1 (11719241_x_at) / Fold change /veh CAMK2N1 (11719241_x_at) / RFU C5orf56 (11738088_a_at) / Fold change /veh C5orf56 (11738088_a_at) / RFU OLFML3 (11715873_a_at) / Fold change /veh OLFML3 (11715873_a_at) / RFU LOC100653217 /// NTM (11731650_a_at) / Fold change /veh LOC100653217 /// NTM (11731650_a_at) / RFU MAPK11 (11762145_a_at) / Fold change /veh MAPK11 (11762145_a_at) / RFU FIZ1 (11724087_x_at) / Fold change /veh FIZ1 (11724087_x_at) / RFU OASL (11726364_x_at) / Fold change /veh OASL (11726364_x_at) / RFU SOX15 (11748057_x_at) / Fold change /veh SOX15 (11748057_x_at) / RFU CD79A (11719716_a_at) / Fold change /veh CD79A (11719716_a_at) / RFU HIST1H1D (11736915_at) / Fold change /veh HIST1H1D (11736915_at) / RFU CASKIN2 (11723855_a_at) / Fold change /veh CASKIN2 (11723855_a_at) / RFU LOC730098 (11760151_x_at) / Fold change /veh LOC730098 (11760151_x_at) / RFU OR4N2 (11742367_at) / Fold change /veh OR4N2 (11742367_at) / RFU PRRT2 (11749266_a_at) / Fold change /veh PRRT2 (11749266_a_at) / RFU SNX32 (11753110_a_at) / Fold change /veh SNX32 (11753110_a_at) / RFU CDHR5 (11726645_a_at) / Fold change /veh CDHR5 (11726645_a_at) / RFU RCAN1 (11760418_a_at) / Fold change /veh RCAN1 (11760418_a_at) / RFU FAM167A (11723789_a_at) / Fold change /veh FAM167A (11723789_a_at) / RFU FAM26E (11764081_at) / Fold change /veh FAM26E (11764081_at) / RFU ISYNA1 (11749810_s_at) / Fold change /veh ISYNA1 (11749810_s_at) / RFU ACY1 (11761880_at) / Fold change /veh ACY1 (11761880_at) / RFU 11764098_at / Fold change /veh 11764098_at / RFU SAMD14 (11745864_x_at) / Fold change /veh SAMD14 (11745864_x_at) / RFU NPB (11741838_a_at) / Fold change /veh NPB (11741838_a_at) / RFU TMPRSS6 (11731388_a_at) / Fold change /veh TMPRSS6 (11731388_a_at) / RFU KRTAP10-2 (11738614_at) / Fold change /veh KRTAP10-2 (11738614_at) / RFU ARHGAP8 /// PRR5-ARHGAP8 (11727945_x_at) / Fold change /veh ARHGAP8 /// PRR5-ARHGAP8 (11727945_x_at) / RFU KRTAP5-7 /// NADSYN1 (11734609_at) / Fold change /veh KRTAP5-7 /// NADSYN1 (11734609_at) / RFU RASL12 (11751679_a_at) / Fold change /veh RASL12 (11751679_a_at) / RFU CDKN2B (11736163_a_at) / Fold change /veh CDKN2B (11736163_a_at) / RFU PRF1 (11729649_at) / Fold change /veh PRF1 (11729649_at) / RFU, ZNF638 /// ZNF638-IT1 / Fold change vs veh, ZNF638 /// ZNF638-IT1 / RFU, PANK3 / Fold change vs veh, PANK3 / RFU, SH3YL1 / Fold change vs veh, SH3YL1 / RFU, ZEB2 / Fold change vs veh, ZEB2 / RFU, NRIP1 / Fold change vs veh, NRIP1 / RFU, PTTG1IP / Fold change vs veh, PTTG1IP / RFU, CAPN2 / Fold change vs veh, CAPN2 / RFU, MED14 / Fold change vs veh, MED14 / RFU, SNORA58 / Fold change vs veh, SNORA58 / RFU, C1orf63 / Fold change vs veh, C1orf63 / RFU, LRRFIP1 / Fold change vs veh, LRRFIP1 / RFU, NDUFAF7 / Fold change vs veh, NDUFAF7 / RFU, SLC12A2 / Fold change vs veh, SLC12A2 / RFU, IBTK / Fold change vs veh, IBTK / RFU, ESF1 / Fold change vs veh, ESF1 / Fold change vs veh, TMEM50B / RFU, TAOK1 / Fold change vs veh, TAOK1 / RFU, ACBD3 / Fold change vs veh, ACBD3 / RFU, TMA16 / Fold change vs veh, TMA16 / RFU, RWDD3 / Fold change vs veh, RWDD3 / RFU, BCAT1 / Fold change vs veh, BCAT1 / RFU, EDEM3 / Fold change vs veh, EDEM3 / RFU, TMEM33 / Fold change vs veh, TMEM33 / RFU, WDR75 / Fold change vs veh, WDR75 / RFU, AHCTF1 / Fold change vs veh, AHCTF1 / RFU, TFRC / Fold change vs veh, TFRC / RFU, ZDHHC17 / Fold change vs veh, ZDHHC17 / RFU, NOM1 / Fold change vs veh, NOM1 / RFU, ARL8B / Fold change vs veh, ARL8B / RFU, ZBTB11 / Fold change vs veh, ZBTB11 / RFU, TAMM41 / Fold change vs veh, TAMM41 / RFU, KIAA1704 /// LOC100996395 / Fold change vs veh, KIAA1704 /// LOC100996395 / RFU, ING1 / Fold change vs veh, ING1 / RFU, TRMT61B / Fold change vs veh, TRMT61B / RFU, FUBP3 / Fold change vs veh, FUBP3 / RFU, TP53 / Fold change vs veh, TP53 / RFU, TNKS2 / Fold change vs veh, TNKS2 / RFU, ZFP14 / Fold change vs veh, ZFP14 / RFU, ACTR2 / Fold change vs veh, ACTR2 / RFU, PPP3R1 / Fold change vs veh, PPP3R1 / RFU, PIK3R1 / Fold change vs veh, PIK3R1 / RFU, HNRNPA1 / Fold change vs veh, HNRNPA1 / RFU, RNF170 / Fold change vs veh, RNF170 / RFU, ZNF28 / Fold change vs veh, ZNF28 / RFU, RNGTT / Fold change vs veh, RNGTT / RFU, OGT / Fold change vs veh, OGT / RFU, BRD1 / Fold change vs veh, BRD1 / RFU, MARS / Fold change vs veh, MARS / RFU, ZNF655 / Fold change vs veh, ZNF655 / RFU, FAHD1 / Fold change vs veh, FAHD1 / RFU, BDP1 / Fold change vs veh, BDP1 / RFU, LRRCC1 / Fold change vs veh, LRRCC1 / RFU, ARID1A / Fold change vs veh, ARID1A / RFU, ZNF146 / Fold change vs veh, ZNF146 / RFU, ZNF330 / Fold change vs veh, ZNF330 / RFU, GPN3 / Fold change vs veh, GPN3 / RFU, C9orf123 / Fold change vs veh, C9orf123 / RFU, N4BP2L2 / Fold change vs veh, N4BP2L2 / RFU, ARFIP1 / Fold change vs veh, ARFIP1 / RFU, FAM179B / Fold change vs veh, FAM179B / RFU, BCL10 / Fold change vs veh, BCL10 / RFU, UHRF1BP1L / Fold change vs veh, UHRF1BP1L / RFU, BET1 / Fold change vs veh, BET1 / RFU, CNOT2 / Fold change vs veh, CNOT2 / RFU, ZNF268 / Fold change vs veh, ZNF268 / Fold change vs veh, ZNF507 / RFU, DGCR2 / Fold change vs veh, DGCR2 / RFU, WDSUB1 / Fold change vs veh, WDSUB1 / Fold change vs veh, HSP90B1 /// MIR3652 / RFU, ADSS / Fold change vs veh, ADSS / RFU, GK / Fold change vs veh, GK / RFU, ZNF148 / Fold change vs veh, ZNF148 / RFU, TAF9 / Fold change vs veh, TAF9 / RFU, SLC1A5 / Fold change vs veh, SLC1A5 / RFU, SLMO2 / Fold change vs veh, SLMO2 / RFU, ABCC4 / Fold change vs veh, ABCC4 / RFU, LOC101060439 /// RAP1B / Fold change vs veh, LOC101060439 /// RAP1B / RFU, RFX7 / Fold change vs veh, RFX7 / RFU, GTPBP10 / Fold change vs veh, GTPBP10 / RFU, CNEP1R1 / Fold change vs veh, CNEP1R1 / RFU, BIVM-ERCC5 /// ERCC5 / Fold change vs veh, BIVM-ERCC5 /// ERCC5 / RFU, ILF3 / Fold change vs veh, ILF3 / RFU 11762660_at / Fold change /veh 11762660_at / RFU VCAN (11757783_s_at) / Fold change /veh VCAN (11757783_s_at) / RFU DDX43 (11728927_at) / Fold change /veh DDX43 (11728927_at) / RFU KRT8 (11758188_x_at) / Fold change /veh KRT8 (11758188_x_at) / RFU NKD1 (11759106_at) / Fold change /veh NKD1 (11759106_at) / RFU SRD5A1 (11742802_a_at) / Fold change /veh SRD5A1 (11742802_a_at) / RFU TPSAB1 /// TPSB2 (11721975_s_at) / Fold change /veh TPSAB1 /// TPSB2 (11721975_s_at) / RFU GSTM3 (11746129_a_at) / Fold change /veh GSTM3 (11746129_a_at) / RFU IL23R (11737362_x_at) / Fold change /veh IL23R (11737362_x_at) / RFU TMEM51 (11727254_a_at) / Fold change /veh TMEM51 (11727254_a_at) / RFU PIWIL2 (11732686_x_at) / Fold change /veh PIWIL2 (11732686_x_at) / RFU ORM1 (11744905_x_at) / Fold change /veh ORM1 (11744905_x_at) / RFU CCDC152 (11743942_at) / Fold change /veh CCDC152 (11743942_at) / RFU ECM1 (11717891_a_at) / Fold change /veh ECM1 (11717891_a_at) / RFU IL23R (11748794_a_at) / Fold change /veh IL23R (11748794_a_at) / RFU TNFAIP8L3 (11732012_x_at) / Fold change /veh TNFAIP8L3 (11732012_x_at) / RFU MBOAT4 (11741988_at) / Fold change /veh MBOAT4 (11741988_at) / RFU 11764193_at / Fold change /veh 11764193_at / RFU TMEM53 (11763286_at) / Fold change /veh TMEM53 (11763286_at) / RFU MAGEB2 (11727129_at) / Fold change /veh MAGEB2 (11727129_at) / RFU TMEM200A (11744735_a_at) / Fold change /veh TMEM200A (11744735_a_at) / RFU CCDC152 (11751479_a_at) / Fold change /veh CCDC152 (11751479_a_at) / RFU FAM211A (11726209_a_at) / Fold change /veh FAM211A (11726209_a_at) / RFU RGS16 (11746705_a_at) / Fold change /veh RGS16 (11746705_a_at) / RFU VCAN (11755009_s_at) / Fold change /veh VCAN (11755009_s_at) / RFU RHOB (11743442_s_at) / Fold change /veh RHOB (11743442_s_at) / RFU RGS16 (11720943_a_at) / Fold change /veh RGS16 (11720943_a_at) / RFU RGS16 (11720944_at) / Fold change /veh RGS16 (11720944_at) / RFU, VPS4B / Fold change vs veh, VPS4B / RFU, CREB1 / Fold change vs veh, CREB1 / RFU, DNAJC13 / Fold change vs veh, DNAJC13 / RFU, GNAQ / Fold change vs veh, GNAQ / RFU, CDK5R1 / Fold change vs veh, CDK5R1 / RFU, ZRANB3 / Fold change vs veh, ZRANB3 / RFU, CUL4A / Fold change vs veh, CUL4A / RFU, CCNY / Fold change vs veh, CCNY / RFU, UFL1 / Fold change vs veh, UFL1 / RFU, COG3 / Fold change vs veh, COG3 / RFU, DIAPH2 / Fold change vs veh, DIAPH2 / RFU, SKA2 / Fold change vs veh, SKA2 / RFU, AFF3 / Fold change vs veh, AFF3 / RFU, LMF1 / Fold change vs veh, LMF1 / RFU, IPO11 / Fold change vs veh, IPO11 / RFU, DFFB / Fold change vs veh, DFFB / RFU, FOXP1 / Fold change vs veh, FOXP1 / RFU, CARD8 / Fold change vs veh, CARD8 / RFU, STRN3 / Fold change vs veh, STRN3 / RFU, ADK / Fold change vs veh, ADK / RFU, RASSF2 / Fold change vs veh, RASSF2 / RFU, WIPF1 / Fold change vs veh, WIPF1 / RFU, LARP1B / Fold change vs veh, LARP1B / RFU, RASA1 / Fold change vs veh, RASA1 / RFU, RB1 / Fold change vs veh, RB1 / RFU, PPFIA1 / Fold change vs veh, PPFIA1 / RFU, MAT2A / Fold change vs veh, MAT2A / RFU, CCT5 / Fold change vs veh, CCT5 / RFU, WDR92 / Fold change vs veh, WDR92 / RFU, CUX1 / Fold change vs veh, CUX1 / RFU, TTC7A / Fold change vs veh, TTC7A / RFU, TMEM135 / Fold change vs veh, TMEM135 / RFU, DEPTOR / Fold change vs veh, DEPTOR / RFU, CPM / Fold change vs veh, CPM / RFU, DNAJB6 / Fold change vs veh, DNAJB6 / RFU, CACNA2D3 / Fold change vs veh, CACNA2D3 / RFU, DTX4 / Fold change vs veh, DTX4 / RFU, TFCP2 / Fold change vs veh, TFCP2 / RFU, GMCL1 /// GMCL1P1 / Fold change vs veh, GMCL1 /// GMCL1P1 / RFU, AEBP2 / Fold change vs veh, AEBP2 / RFU, SNHG1 /// SNORD22 /// SNORD25 /// SNORD26 /// SNORD27 /// SNORD28 /// SNORD29 /// SNORD31 / Fold change vs veh, SNHG1 /// SNORD22 /// SNORD25 /// SNORD26 /// SNORD27 /// SNORD28 /// SNORD29 /// SNORD31 / Fold change (Aza/veh), C12orf56 (ProbeSet 11735607_a_at) / Fold change (ACY-1035/veh), C12orf56 (ProbeSet 11735607_a_at) / Fold change (Aza/veh), FGFR1OP (ProbeSet 11751329_s_at) / Fold change (ACY-1035/veh), FGFR1OP (ProbeSet 11751329_s_at) / Fold change (Aza/veh), VPS36 (ProbeSet 11739960_a_at) / Fold change (ACY-1035/veh), VPS36 (ProbeSet 11739960_a_at) / RFU SYPL1 (11715823_x_at) / Fold change /veh SYPL1 (11715823_x_at) / RFU IGFBP7 (11715501_s_at) / Fold change /veh IGFBP7 (11715501_s_at) / RFU REEP3 (11722064_at) / Fold change /veh REEP3 (11722064_at) / RFU IGLL1 (11728026_x_at) / Fold change /veh IGLL1 (11728026_x_at): dose or concentration left out as unconfirmed
Settings: ProbeSet 11731610_x_at; LIST B

For Nc1ncn([C@@H]2O[C@H](CO)[C@@H](O)[C@H]2O)c(=O)n1 [azacitidine], the “RFU, KIAA1704 /// LOC100996395” value was 92.56 RFU.
